Experimental data reported in US8952024B2, “Herbicidal pyrimidone derivatives” (E I du Pont de Nemours and Company, priority 2009, dated 2015).

Assays:
Type in all cases: in vivo
[1] = test system: rice (Oryza sativa); test: Test B flooded paddy test; settings: for Plant response rating, Rice: Flood (flooded paddy test), 13 to 15 days
Procedure, shortened: (§1)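 Post-flood paddy application: compounds are introduced into water 3 cm deep over the soil, reaching plants at the 2-leaf stage. The water level is maintained, and after 13–15 days under greenhouse conditions, response is judged by eye relative to controls, where 100 means complete control.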

[2] = test system: ducksalad (Heteranthera limosa); test: Test B flooded paddy test; settings: for Plant response rating, Ducksalad: Flood (flooded paddy test), 13 to 15 days
Procedure, shortened: as §1

[3] = test system: umbrella sedge (Cyperus difformis); test: Test B flooded paddy test; settings: for Plant response rating, Sedge, Umbrella: Flood (flooded paddy test), 13 to 15 days
Procedure, shortened: as §1

[4] = test system: barnyardgrass (Echinochloa crus-galli); test: Test B flooded paddy test; settings: for Plant response rating, Barnyardgrass: Flood (flooded paddy test), 13 to 15 days
Procedure, shortened: as §1

[5] = test system: cocklebur (Xanthium strumarium); test: Test B pre-/postemergence plant response; settings: Preemergence
Procedure, shortened: (§2)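 Steps: sow seed in loam–sand soil and spray preemergence, or grow plants in peat-based medium to 1–4 leaves (2–18 cm) and spray postemergence; formulation is non-phytotoxic solvent plus surfactant; hold in greenhouse 13–15 days; score visually vs controls, 0 = no effect, 100 = complete control.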

[6] = test system: Surinam grass (Brachiaria decumbens); test: Test B pre-/postemergence plant response
Procedure, shortened: as §2

[7] = test system: Italian ryegrass (Lolium multiflorum); test: Test B pre-/postemergence plant response
Procedure, shortened: as §2

[8] = test system: blackgrass (Alopecurus myosuroides); test: Test B pre-/postemergence plant response
Procedure, shortened: as §2

[9] = test system: corn (Zea mays); test: Test B pre-/postemergence plant response
Procedure, shortened: as §2

[10] = test system: soybean (Glycine max); test: Test B pre-/postemergence plant response
Procedure, shortened: as §2

[11] = test system: bermudagrass (Cynodon dactylon); test: Test B pre-/postemergence plant response
Procedure, shortened: as §2

[12] = test system: morningglory (Ipomoea coccinea); test: Test B pre-/postemergence plant response
Procedure, shortened: as §2

[13] = test system: ragweed (common ragweed, Ambrosia elatior); test: Test B pre-/postemergence plant response
Procedure, shortened: as §2

[14] = 250 g ai/ha, flooded paddy test, visual rating on 0 to 100 scale (0 no effect, 100 complete control) after 13 to 15 days
[15] = 62 g ai/ha, scale of 0 to 100 where 0 is no effect and 100 is complete control
[16] = 125 g ai/ha, scale 0 to 100, 0 is no effect, 100 is complete control
[17] = Flood, 31 g ai/ha, scale 0 to 100 (0 no effect, 100 complete control)
[18] = Postemergence, 31 g ai/ha, 0 to 100 scale (0 no effect, 100 complete control)
[19] = Postemergence, 62 g ai/ha, scale 0 to 100 (0 no effect, 100 complete control)
[20] = Postemergence, 250 g ai/ha, scale 0 to 100 (0 no effect, 100 complete control), 13 to 15 days
[21] = Preemergence, 31 g ai/ha, scale 0 to 100 (0 no effect, 100 complete control)
[22] = Preemergence, 62 g ai/ha, scale 0 to 100 (0 no effect, 100 complete control)
[23] = Preemergence, 125 g ai/ha, scale 0 to 100, 0 no effect, 100 complete control
[24] = Preemergence, 250 g ai/ha, 0 to 100 scale
[25] = Postemergence, 125 g ai/ha, scale 0 to 100 (0 no effect, 100 complete control)

SMILES: CCc1ccc(-n2c(-c3ccccc3)ncc(C(=O)C3=C(O)CCCC3=O)c2=O)cc1 [Compound 219]
- Plant response rating, Flood, Rice [1, 14]: 75
- Plant response rating, Rice [1, 15]: 0
- Plant response rating, Rice [1, 16]: 70
- Rice plant response rating [1, 17]: 0
- Plant response rating, Flood, Ducksalad [2, 14]: 90
- Plant response rating, Ducksalad [2, 15]: 20
- Plant response rating, Ducksalad [2, 16]: 65
- Ducksalad plant response rating [2, 17]: 0
- Plant response rating, Flood, Sedge, Umbrella [3, 14]: 85
- Plant response rating, Sedge, Umbrella [3, 15]: 40
- Plant response rating, Sedge, Umbrella [3, 16]: 60
- Sedge, Umbrella plant response rating [3, 17]: 20
- Plant response rating, Flood, Barnyardgrass [4, 14]: 60
- Plant response rating, Barnyardgrass [4, 15]: 0
- Plant response rating, Barnyardgrass [4, 16]: 20
- Barnyardgrass plant response rating [4, 17]: 0
- Plant response rating, Cocklebur ([5]; 62 g ai/ha, scale 0 to 100 (0 no effect, 100 complete control)): 75
- Cocklebur plant response rating ([5]; 250 g ai/ha, 0 to 100 scale): 85
- Plant response rating, Surinam Grass [6, 18]: 10
- Plant response rating, Surinam Grass [6, 19]: 25
- Plant response rating, Surinam Grass [6, 20]: 65
- Plant response rating, Surinam Grass [6, 21]: 10
- Plant response rating, Surinam Grass [6, 22]: 10
- Plant response rating, Surinam Grass [6, 23]: 45
- Surinam Grass plant response rating [6, 24]: 100
- Plant response rating, Ryegrass, Italian [7, 18]: 20
- Plant response rating, Ryegrass, Italian [7, 19]: 25
- Plant response rating, Ryegrass, Italian [7, 20]: 40
- Plant response rating, Ryegrass, Italian [7, 21]: 0
- Plant response rating, Ryegrass, Italian [7, 22]: 0
- Plant response rating, Ryegrass, Italian [7, 23]: 5
- Ryegrass, Italian plant response rating [7, 24]: 10
- Plant response rating, Blackgrass [8, 18]: 50
- Plant response rating, Blackgrass [8, 19]: 55
- Plant response rating, Blackgrass [8, 25]: 55
- Plant response rating, Blackgrass [8, 20]: 90
- Plant response rating, Blackgrass [8, 21]: 30
- Plant response rating, Blackgrass [8, 22]: 35
- Plant response rating, Blackgrass [8, 23]: 40
- Blackgrass plant response rating [8, 24]: 60
- Plant response rating, Corn [9, 18]: 10
- Plant response rating, Corn [9, 19]: 60
- Plant response rating, Corn [9, 25]: 75
- Plant response rating, Corn [9, 20]: 80
- Plant response rating, Corn [9, 21]: 0
- Plant response rating, Corn [9, 22]: 0
- Plant response rating, Corn [9, 23]: 0
- Corn plant response rating [9, 24]: 0
- Plant response rating, Soybean [10, 18]: 95
- Plant response rating, Soybean [10, 19]: 98
- Plant response rating, Soybean [10, 20]: 100
- Plant response rating, Soybean [10, 21]: 0
- Plant response rating, Soybean [10, 22]: 0
- Plant response rating, Soybean [10, 23]: 65
- Soybean plant response rating [10, 24]: 75
- Plant response rating, Bermudagrass [11, 18]: 95
- Plant response rating, Bermudagrass [11, 19]: 98
- Plant response rating, Bermudagrass [11, 25]: 100
- Plant response rating, Bermudagrass [11, 20]: 100
- Plant response rating, Bermudagrass [11, 21]: 98
- Plant response rating, Bermudagrass [11, 22]: 100
- Plant response rating, Bermudagrass [11, 23]: 100
- Bermudagrass plant response rating ([11]; Preemergence, 250 g ai/ha, 0 to 100 scale, 0 no effect, 100 complete control): 100
- Plant response rating, Morningglory [12, 18]: 60
- Plant response rating, Morningglory [12, 19]: 85
- Plant response rating, Morningglory [12, 25]: 100
- Plant response rating, Morningglory [12, 20]: 100
- Plant response rating, Morningglory [12, 21]: 0
- Plant response rating, Morningglory [12, 22]: 0
- Plant response rating, Morningglory [12, 23]: 15
- Morningglory plant response rating [12, 24]: 100
- Plant response rating, Ragweed [13, 18]: 80
- Plant response rating, Ragweed [13, 19]: 98
- Plant response rating, Ragweed [13, 20]: 100
- Plant response rating, Ragweed [13, 21]: 45
- Plant response rating, Ragweed [13, 22]: 75
- Plant response rating, Ragweed [13, 23]: 85
- Ragweed plant response rating [13, 24]: 98
